{"source": "ChEMBL document CHEMBL1201862", "about": "“PubChem BioAssay data set” (2004)", "assay_type_in_all_cases": "functional", "key": {"[1]": {"biological_target": "ALK tyrosine kinase receptor (Homo sapiens, UniProt Q9UM73)", "sequence (Q9UM73 whole entry)": "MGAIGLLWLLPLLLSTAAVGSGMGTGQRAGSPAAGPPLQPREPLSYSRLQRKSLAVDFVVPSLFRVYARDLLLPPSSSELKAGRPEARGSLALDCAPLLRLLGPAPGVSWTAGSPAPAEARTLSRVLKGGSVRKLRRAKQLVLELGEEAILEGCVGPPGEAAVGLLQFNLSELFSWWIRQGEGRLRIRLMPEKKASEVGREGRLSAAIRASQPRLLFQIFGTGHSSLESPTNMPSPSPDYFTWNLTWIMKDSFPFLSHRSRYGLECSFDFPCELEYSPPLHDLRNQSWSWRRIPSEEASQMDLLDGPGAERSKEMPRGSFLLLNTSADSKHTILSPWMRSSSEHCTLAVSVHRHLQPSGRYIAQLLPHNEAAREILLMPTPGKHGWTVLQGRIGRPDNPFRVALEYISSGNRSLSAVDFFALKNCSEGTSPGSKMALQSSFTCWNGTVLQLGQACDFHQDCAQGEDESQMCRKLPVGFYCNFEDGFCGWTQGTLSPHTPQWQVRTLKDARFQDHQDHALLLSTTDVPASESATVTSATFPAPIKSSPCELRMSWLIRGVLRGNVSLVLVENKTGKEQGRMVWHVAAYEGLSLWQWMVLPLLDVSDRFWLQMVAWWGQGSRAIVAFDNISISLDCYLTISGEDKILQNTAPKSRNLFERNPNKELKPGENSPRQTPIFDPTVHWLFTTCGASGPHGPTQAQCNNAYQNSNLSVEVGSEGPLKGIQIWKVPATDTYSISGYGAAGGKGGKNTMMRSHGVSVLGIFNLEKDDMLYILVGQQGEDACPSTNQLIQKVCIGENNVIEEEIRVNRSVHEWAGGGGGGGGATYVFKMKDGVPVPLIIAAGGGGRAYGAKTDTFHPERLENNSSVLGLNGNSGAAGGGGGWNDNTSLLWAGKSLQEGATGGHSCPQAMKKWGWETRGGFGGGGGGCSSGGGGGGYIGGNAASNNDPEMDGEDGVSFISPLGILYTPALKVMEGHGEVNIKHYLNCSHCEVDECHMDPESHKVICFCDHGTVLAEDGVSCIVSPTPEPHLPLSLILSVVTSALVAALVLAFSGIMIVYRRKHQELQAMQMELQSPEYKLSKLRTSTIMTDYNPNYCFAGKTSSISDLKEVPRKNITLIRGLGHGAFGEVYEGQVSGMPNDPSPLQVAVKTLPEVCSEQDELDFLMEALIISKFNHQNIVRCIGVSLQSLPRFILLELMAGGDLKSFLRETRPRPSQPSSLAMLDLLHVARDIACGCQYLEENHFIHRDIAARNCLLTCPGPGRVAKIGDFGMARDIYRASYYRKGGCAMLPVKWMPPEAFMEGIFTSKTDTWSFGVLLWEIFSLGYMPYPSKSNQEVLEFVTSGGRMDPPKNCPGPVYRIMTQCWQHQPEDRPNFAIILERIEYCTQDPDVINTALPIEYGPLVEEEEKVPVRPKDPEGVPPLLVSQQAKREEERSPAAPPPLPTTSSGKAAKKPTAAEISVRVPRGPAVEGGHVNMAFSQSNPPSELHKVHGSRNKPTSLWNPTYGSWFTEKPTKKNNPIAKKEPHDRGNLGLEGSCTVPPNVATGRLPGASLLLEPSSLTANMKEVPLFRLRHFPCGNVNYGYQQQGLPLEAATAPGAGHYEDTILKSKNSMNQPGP"}, "[2]": {"biological_target": "cAMP-dependent protein kinase catalytic subunit PRKX (Homo sapiens, UniProt P51817)", "sequence (P51817 whole entry)": "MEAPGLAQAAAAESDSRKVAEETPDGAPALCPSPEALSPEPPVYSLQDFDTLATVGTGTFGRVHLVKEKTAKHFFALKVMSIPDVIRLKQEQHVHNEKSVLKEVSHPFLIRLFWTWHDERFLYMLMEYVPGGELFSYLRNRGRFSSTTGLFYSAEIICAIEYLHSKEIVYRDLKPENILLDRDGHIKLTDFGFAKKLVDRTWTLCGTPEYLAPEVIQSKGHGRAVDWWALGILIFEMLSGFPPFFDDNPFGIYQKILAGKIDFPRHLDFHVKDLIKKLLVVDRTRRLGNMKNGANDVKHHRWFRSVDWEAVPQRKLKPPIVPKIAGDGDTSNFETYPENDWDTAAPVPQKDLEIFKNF"}, "[3]": {"biological_target": "Protein kinase C theta type (Homo sapiens, UniProt Q04759)", "assay": "Navigating the Kinome. Panel member name: PRKCQ"}, "[4]": {"biological_target": "Fibroblast growth factor receptor 1 (Homo sapiens, UniProt P11362)"}, "Aurora kinase B": {"biological_target": "Aurora kinase B (Homo sapiens, UniProt Q96GD4)", "sequence (Q96GD4 whole entry)": "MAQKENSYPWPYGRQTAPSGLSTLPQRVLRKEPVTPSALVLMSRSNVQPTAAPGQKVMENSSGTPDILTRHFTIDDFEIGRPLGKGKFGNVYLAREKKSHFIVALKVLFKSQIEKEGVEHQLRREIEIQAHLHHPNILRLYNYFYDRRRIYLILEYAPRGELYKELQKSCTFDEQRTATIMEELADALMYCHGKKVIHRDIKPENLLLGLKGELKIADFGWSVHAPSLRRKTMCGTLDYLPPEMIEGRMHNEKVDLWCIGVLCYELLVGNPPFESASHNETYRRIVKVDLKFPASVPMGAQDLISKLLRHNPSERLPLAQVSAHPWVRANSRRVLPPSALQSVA"}, "[5]": {"biological_target": "Dual specificity tyrosine-phosphorylation-regulated kinase 1B (Homo sapiens, UniProt Q9Y463)", "sequence (Q9Y463 whole entry)": "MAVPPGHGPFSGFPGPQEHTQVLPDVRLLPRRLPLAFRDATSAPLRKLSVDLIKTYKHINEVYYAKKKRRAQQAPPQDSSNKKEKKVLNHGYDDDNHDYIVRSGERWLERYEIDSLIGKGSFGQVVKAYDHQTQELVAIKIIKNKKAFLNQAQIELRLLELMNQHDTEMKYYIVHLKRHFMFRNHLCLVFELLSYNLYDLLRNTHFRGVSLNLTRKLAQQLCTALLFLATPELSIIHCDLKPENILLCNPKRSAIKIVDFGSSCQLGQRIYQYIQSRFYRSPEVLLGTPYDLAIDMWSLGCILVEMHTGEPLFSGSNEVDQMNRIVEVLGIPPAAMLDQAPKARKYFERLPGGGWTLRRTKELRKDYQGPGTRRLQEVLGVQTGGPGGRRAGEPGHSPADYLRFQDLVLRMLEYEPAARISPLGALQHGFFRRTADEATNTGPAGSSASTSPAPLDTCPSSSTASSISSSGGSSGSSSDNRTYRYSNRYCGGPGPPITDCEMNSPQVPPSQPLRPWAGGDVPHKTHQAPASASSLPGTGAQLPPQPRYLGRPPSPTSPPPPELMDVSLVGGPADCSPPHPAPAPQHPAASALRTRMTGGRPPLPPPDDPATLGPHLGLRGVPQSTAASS", "assay": "Navigating the Kinome. Panel member name: DYRK1B"}, "[6]": {"biological_target": "Mitogen-activated protein kinase kinase kinase kinase 2 (Homo sapiens, UniProt Q12851)"}, "[7]": {"biological_target": "Ribosomal protein S6 kinase alpha-3 (Homo sapiens, UniProt P51812)"}, "[8]": {"biological_target": "5'-AMP-activated protein kinase catalytic subunit alpha-1 (Homo sapiens, UniProt Q13131)"}, "[9]": {"biological_target": "Macrophage colony-stimulating factor 1 receptor (Homo sapiens, UniProt P07333)"}, "[10]": {"biological_target": "Calcium/calmodulin-dependent protein kinase type II subunit alpha (Homo sapiens, UniProt Q9UQM7)", "assay": "Navigating the Kinome. Panel member name: CAMK2A"}, "[11]": {"biological_target": "Casein kinase I isoform alpha (Homo sapiens, UniProt P48729)"}, "[12]": {"biological_target": "T1, Glycogen synthase kinase-3 alpha (Homo sapiens, UniProt P49840)", "T1 sequence (P49840 whole entry)": "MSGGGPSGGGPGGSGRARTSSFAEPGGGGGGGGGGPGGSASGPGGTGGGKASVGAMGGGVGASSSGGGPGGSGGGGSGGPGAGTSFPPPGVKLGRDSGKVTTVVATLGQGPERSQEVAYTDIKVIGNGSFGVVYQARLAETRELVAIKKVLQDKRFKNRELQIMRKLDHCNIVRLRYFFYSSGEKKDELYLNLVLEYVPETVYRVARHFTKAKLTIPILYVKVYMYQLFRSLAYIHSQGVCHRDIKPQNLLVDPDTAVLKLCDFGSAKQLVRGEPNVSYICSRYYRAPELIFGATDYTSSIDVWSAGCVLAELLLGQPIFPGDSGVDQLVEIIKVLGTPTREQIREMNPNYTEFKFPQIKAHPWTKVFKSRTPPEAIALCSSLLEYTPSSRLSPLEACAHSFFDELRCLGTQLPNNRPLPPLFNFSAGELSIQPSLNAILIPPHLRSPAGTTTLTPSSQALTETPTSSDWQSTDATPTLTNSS"}, "[13]": {"biological_target": "Leucine-rich repeat serine/threonine-protein kinase 2 (Homo sapiens, UniProt Q5S007)"}, "[14]": {"biological_target": "Dual specificity protein kinase CLK4 (Homo sapiens, UniProt Q9HAZ1)"}, "[15]": {"biological_target": "Mitogen-activated protein kinase kinase kinase kinase 4 (Homo sapiens, UniProt O95819)"}, "[16]": {"biological_target": "Serine/threonine-protein kinase pim-1 (Homo sapiens, UniProt P11309)", "sequence (P11309 whole entry)": "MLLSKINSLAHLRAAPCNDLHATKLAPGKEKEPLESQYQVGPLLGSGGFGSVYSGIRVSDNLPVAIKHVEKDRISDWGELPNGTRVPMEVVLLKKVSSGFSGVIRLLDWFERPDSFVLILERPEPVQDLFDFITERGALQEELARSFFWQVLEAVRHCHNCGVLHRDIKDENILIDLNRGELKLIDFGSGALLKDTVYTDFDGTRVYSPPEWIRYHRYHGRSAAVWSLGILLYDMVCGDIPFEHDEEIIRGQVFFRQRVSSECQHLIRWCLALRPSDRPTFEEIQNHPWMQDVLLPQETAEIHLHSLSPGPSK"}, "[17]": {"biological_target": "Cyclin-dependent kinase 7 (Homo sapiens, UniProt P50613)"}, "[18]": {"biological_target": "Leukocyte tyrosine kinase receptor (Homo sapiens, UniProt P29376)", "assay": "Navigating the Kinome. Panel member name: LTK"}, "[19]": {"biological_target": "T2, Glycogen synthase kinase-3 beta (Homo sapiens, UniProt P49841)", "T2 sequence (P49841 whole entry)": "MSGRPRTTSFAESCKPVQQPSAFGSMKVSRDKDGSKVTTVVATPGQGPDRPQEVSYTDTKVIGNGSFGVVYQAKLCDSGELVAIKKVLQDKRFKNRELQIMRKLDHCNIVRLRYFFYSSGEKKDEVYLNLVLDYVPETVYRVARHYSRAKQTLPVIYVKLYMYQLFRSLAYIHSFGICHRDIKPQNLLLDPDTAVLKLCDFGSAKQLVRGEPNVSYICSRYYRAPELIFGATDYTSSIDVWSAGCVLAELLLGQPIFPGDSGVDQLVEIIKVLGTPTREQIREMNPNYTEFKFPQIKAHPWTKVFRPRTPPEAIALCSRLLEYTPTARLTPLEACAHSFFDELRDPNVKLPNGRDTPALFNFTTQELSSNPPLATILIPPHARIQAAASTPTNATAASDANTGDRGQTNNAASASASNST"}, "[20]": {"biological_target": "Serine/threonine-protein kinase PAK 4 (Homo sapiens, UniProt O96013)"}, "[21]": {"biological_target": "Tyrosine-protein kinase receptor TYRO3 (Homo sapiens, UniProt Q06418)"}, "[22]": {"biological_target": "Rho-associated protein kinase 1 (Homo sapiens, UniProt Q13464)"}, "Aurora kinase A": {"biological_target": "Aurora kinase A (Homo sapiens, UniProt O14965)", "sequence (O14965 whole entry)": "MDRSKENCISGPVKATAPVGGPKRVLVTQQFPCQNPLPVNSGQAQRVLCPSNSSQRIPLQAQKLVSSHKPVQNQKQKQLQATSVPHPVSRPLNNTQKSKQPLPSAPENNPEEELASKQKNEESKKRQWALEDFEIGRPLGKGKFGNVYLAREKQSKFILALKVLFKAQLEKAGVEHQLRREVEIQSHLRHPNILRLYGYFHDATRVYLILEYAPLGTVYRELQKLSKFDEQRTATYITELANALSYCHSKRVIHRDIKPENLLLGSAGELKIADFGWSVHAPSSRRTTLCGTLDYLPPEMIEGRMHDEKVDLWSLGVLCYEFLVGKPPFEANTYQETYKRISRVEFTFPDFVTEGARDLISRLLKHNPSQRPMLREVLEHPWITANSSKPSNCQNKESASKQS"}, "[23]": {"biological_target": "Dual specificity mitogen-activated protein kinase kinase 1 (Homo sapiens, UniProt Q02750)", "assay": "Navigating the Kinome. Panel member name: MAP2K1"}, "[24]": {"biological_target": "Death-associated protein kinase 3 (Homo sapiens, UniProt O43293)"}, "[25]": {"biological_target": "Cyclin-dependent kinase 8 (Homo sapiens, UniProt P49336)", "assay": "Navigating the Kinome. Panel member name: CDK8"}, "[26]": {"biological_target": "cAMP-dependent protein kinase catalytic subunit alpha (Homo sapiens, UniProt P17612)"}, "[27]": {"biological_target": "Dual specificity protein kinase CLK2 (Homo sapiens, UniProt P49760)"}, "[28]": {"biological_target": "Mitogen-activated protein kinase 8 (Homo sapiens, UniProt P45983)"}, "[29]": {"biological_target": "Serine/threonine-protein kinase Chk1 (Homo sapiens, UniProt O14757)"}, "[30]": {"biological_target": "Cyclin-dependent kinase 19 (Homo sapiens, UniProt Q9BWU1)", "assay": "Navigating the Kinome. Panel member name: CDC2L6"}, "Focal adhesion kinase 1": {"biological_target": "Focal adhesion kinase 1 (Homo sapiens, UniProt Q05397)"}, "[31]": {"biological_target": "Vascular endothelial growth factor receptor 2 (Homo sapiens, UniProt P35968)"}, "[32]": {"biological_target": "Proto-oncogene tyrosine-protein kinase receptor Ret (Homo sapiens, UniProt P07949)"}, "LIM domain kinase 1": {"biological_target": "LIM domain kinase 1 (Homo sapiens, UniProt P53667)", "assay": "Navigating the Kinome. Panel member name: LIMK1"}, "[33]": {"biological_target": "Cyclin-dependent kinase 9 (Homo sapiens, UniProt P50750)"}, "Activin receptor type-1": {"biological_target": "Activin receptor type-1 (Homo sapiens, UniProt Q04771)", "assay": "Navigating the Kinome. Panel member name: ACVR1"}, "[34]": {"biological_target": "Serine/threonine-protein kinase TBK1 (Homo sapiens, UniProt Q9UHD2)", "assay": "Navigating the Kinome. Panel member name: TBK1"}, "[35]": {"biological_target": "Serine/threonine-protein kinase D3 (Homo sapiens, UniProt O94806)"}, "[36]": {"biological_target": "Dual specificity tyrosine-phosphorylation-regulated kinase 1A (Homo sapiens, UniProt Q13627)"}, "[37]": {"biological_target": "Vascular endothelial growth factor receptor 1 (Homo sapiens, UniProt P17948)"}, "[38]": {"biological_target": "Tyrosine-protein kinase ABL1 (Homo sapiens, UniProt P00519)"}, "[39]": {"biological_target": "Macrophage-stimulating protein receptor (Homo sapiens, UniProt Q04912)", "assay": "Navigating the Kinome. Panel member name: MST1R"}, "[40]": {"biological_target": "T1, Glycogen synthase kinase-3 alpha", "assay": "GSK3A enzyme blockers, homolog specificity check – biochemical, microfluidics, dry powder samples, set 2, selectivity assay for GSK3beta inhibitor project, dose response (AID 623978)"}, "[41]": {"biological_target": "Cyclin-dependent kinase 5/CDK5 activator 1 (Homo sapiens, UniProt Q00535)", "assay": "inhibitors of human CDK5 activity – biochemical, microfluidic mobility shift, dry powder, set 2, selectivity assay for GSK3beta inhibitor project, dose response (AID 623979)"}, "[42]": {"biological_target": "T2, Glycogen synthase kinase-3 beta", "assay": "inhibition of human GSK3B activity – biochemical, microfluidics, dry powder samples, set 2, dose response (AID 623989)"}, "[43]": {"biological_target": "T3, Neuropeptides B/W receptor type 1 (Homo sapiens, UniProt P48145)", "T3 sequence (P48145 whole entry)": "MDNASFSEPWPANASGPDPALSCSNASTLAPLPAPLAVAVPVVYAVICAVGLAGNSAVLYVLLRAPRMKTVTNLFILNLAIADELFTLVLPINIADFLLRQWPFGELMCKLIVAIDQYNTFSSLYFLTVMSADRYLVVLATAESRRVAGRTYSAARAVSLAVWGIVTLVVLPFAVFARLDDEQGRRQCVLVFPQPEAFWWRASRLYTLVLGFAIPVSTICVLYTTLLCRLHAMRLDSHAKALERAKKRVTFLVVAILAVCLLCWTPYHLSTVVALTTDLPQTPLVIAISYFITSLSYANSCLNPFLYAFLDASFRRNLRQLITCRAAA", "assay": "human NPBW1 receptor blockade, IC50 – cell-based, fluorescence, dose response, set 5, late-stage follow-up (AID 588566)"}, "[44]": {"biological_target": "Melanin-concentrating hormone receptor 1 (Homo sapiens, UniProt Q99705)", "sequence (Q99705 whole entry)": "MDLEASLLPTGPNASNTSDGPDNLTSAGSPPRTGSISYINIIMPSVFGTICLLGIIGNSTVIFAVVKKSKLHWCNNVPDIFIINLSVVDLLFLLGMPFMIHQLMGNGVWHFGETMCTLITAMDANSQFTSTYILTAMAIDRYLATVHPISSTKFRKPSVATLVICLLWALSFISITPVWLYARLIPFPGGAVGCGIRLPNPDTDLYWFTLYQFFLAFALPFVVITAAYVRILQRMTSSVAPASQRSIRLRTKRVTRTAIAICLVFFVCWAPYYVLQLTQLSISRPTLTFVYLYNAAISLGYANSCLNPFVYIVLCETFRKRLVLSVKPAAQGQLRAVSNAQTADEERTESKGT", "assay": "Late-stage fluorescence-based counterscreen for antagonists of the G-protein coupled receptor 7 (GPR7): cell-based dose response assay to identify antagonists of the melanin-concentrating hormone receptor 1 (MCHR1) Set 5."}}, "note": "The source made the active and inactive calls.", "data": [{"molecule": "NC(=O)c1cc2ccncc2s1", "values": [{"measurement": "Ki", "setting": "[1]", "value": "63.1 µM (active)"}, {"measurement": "Ki", "setting": "[2]", "value": "15.8 µM (active)"}, {"measurement": "Ki", "setting": "[3]", "value": "3.16 µM (active)"}, {"measurement": "Ki", "setting": "[4]", "value": "63.1 µM (active)"}, {"measurement": "Ki", "setting": "Aurora kinase B", "value": "31.6 µM (active)"}, {"measurement": "Ki", "setting": "[5]", "value": "1.26 µM (active)"}, {"measurement": "Ki", "setting": "[6]", "value": "10 µM (active)"}, {"measurement": "Ki", "setting": "[7]", "value": "25.1 µM (active)"}, {"measurement": "Ki", "setting": "[8]", "value": "31.6 µM (active)"}, {"measurement": "Ki", "setting": "[9]", "value": "> 100 µM (inactive)"}, {"measurement": "Ki", "setting": "[10]", "value": "79.4 µM (active)"}, {"measurement": "Ki", "setting": "[11]", "value": "1.58 µM (active)"}, {"measurement": "Ki", "setting": "[12]", "value": "3.98 µM (active)"}, {"measurement": "Ki", "setting": "[13]", "value": "10 µM (active)"}, {"measurement": "Ki", "setting": "[14]", "value": "0.794 µM (active)"}, {"measurement": "Ki", "setting": "[15]", "value": "25.1 µM (active)"}, {"measurement": "Ki", "setting": "[16]", "value": "39.8 µM (active)"}, {"measurement": "Ki", "setting": "[17]", "value": "12.6 µM (active)"}, {"measurement": "Ki", "setting": "[18]", "value": "12.6 µM (active)"}, {"measurement": "Ki", "setting": "[19]", "value": "5.01 µM (active)"}, {"measurement": "Ki", "setting": "[20]", "value": "79.4 µM (active)"}, {"measurement": "Ki", "setting": "[21]", "value": "79.4 µM (active)"}, {"measurement": "Ki", "setting": "[22]", "value": "1.58 µM (active)"}, {"measurement": "Ki", "setting": "Aurora kinase A", "value": "63.1 µM (active)"}, {"measurement": "Ki", "setting": "[23]", "value": "10 µM (active)"}, {"measurement": "Ki", "setting": "[24]", "value": "2.51 µM (active)"}, {"measurement": "Ki", "setting": "[25]", "value": "0.794 µM (active)"}, {"measurement": "Ki", "setting": "[26]", "value": "3.98 µM (active)"}, {"measurement": "Ki", "setting": "[27]", "value": "15.8 µM (active)"}, {"measurement": "Ki", "setting": "[28]", "value": "63.1 µM (active)"}, {"measurement": "Ki", "setting": "[29]", "value": "12.6 µM (active)"}, {"measurement": "Ki", "setting": "[30]", "value": "> 100 µM (inactive)"}, {"measurement": "Ki", "setting": "Focal adhesion kinase 1", "value": "100 µM (active)"}, {"measurement": "Ki", "setting": "[31]", "value": "7.94 µM (active)"}, {"measurement": "Ki", "setting": "[32]", "value": "63.1 µM (active)"}, {"measurement": "Ki", "setting": "LIM domain kinase 1", "value": "15.8 µM (active)"}, {"measurement": "Ki", "setting": "[33]", "value": "0.501 µM (active)"}, {"measurement": "Ki", "setting": "Activin receptor type-1", "value": "79.4 µM (active)"}, {"measurement": "Ki", "setting": "[34]", "value": "79.4 µM (active)"}, {"measurement": "Ki", "setting": "[35]", "value": "39.8 µM (active)"}, {"measurement": "Ki", "setting": "[36]", "value": "3.16 µM (active)"}, {"measurement": "Ki", "setting": "[37]", "value": "7.94 µM (active)"}, {"measurement": "Ki", "setting": "[38]", "value": "79.4 µM (active)"}, {"measurement": "Ki", "setting": "[39]", "value": "39.8 µM (active)"}]}, {"molecule": "COc1cc(/C=N/n2c(S)nnc2C2CCCCC2)cc(Br)c1O", "values": [{"measurement": "AC50", "setting": "[40]", "value": "10.4 µM (active)"}, {"measurement": "AC50", "setting": "[41]", "value": "16.8 µM (active)"}, {"measurement": "AC50", "setting": "[42]", "value": "0.958 µM (active)"}]}, {"molecule": "COc1cccc(C(C#N)c2c(Cl)cnn(Cc3cccc4ccccc34)c2=O)c1", "note": "(centres undefined)", "values": [{"measurement": "IC50", "setting": "[43]", "value": "0.569 µM (active)"}, {"measurement": "IC50", "setting": "[44]", "value": "12.1 µM (inactive)"}]}]}
